The values that follow come from patent publication US20050009840A1 (SUGEN, INC., priority 2003, published 2005).

The target of the first test is T1, Met kinase domain (GST fusion protein) (Homo sapiens, UniProt P08581).
T1 construct: Purified GST fusion protein containing the Met kinase domain
T1 sequence (P08581 1078-1345 limits assumed): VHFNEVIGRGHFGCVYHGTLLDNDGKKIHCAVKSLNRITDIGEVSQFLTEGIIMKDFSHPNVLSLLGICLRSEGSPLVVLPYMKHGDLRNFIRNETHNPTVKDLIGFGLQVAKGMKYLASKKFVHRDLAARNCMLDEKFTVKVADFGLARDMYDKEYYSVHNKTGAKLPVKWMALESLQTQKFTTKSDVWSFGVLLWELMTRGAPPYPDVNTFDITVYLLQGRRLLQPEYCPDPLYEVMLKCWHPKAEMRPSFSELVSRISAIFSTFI
The experiment in a line: Met transphosphorylation assay (ELISA, poly(glu-tyr) substrate).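 Note: Cell-free ELISA with plate-bound poly(Glu:Tyr 4:1) phosphorylated by GST-fused Met kinase domain plus ATP and Mn2+, phosphotyrosine detected by anti-phosphotyrosine antibody with HRP and ABTS read-out.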 Format: biochemical. To be noted: Table 2; read-out: Met IC50. Background: ELISA stands for enzyme-linked immunosorbent assay.
What is called IC50 is the concentration needed to halve the response being measured. In the case of `CC(Oc1cc(-c2ccc(OCCN(C(C)C)C(C)C)cc2)cnc1N)c1c(Cl)ccc(F)c1Cl` (stereo not shown) [Example I-362], the IC50 turned out to be 0.052 µM. On the same count and under the same terms, with `CC(Oc1cc(-c2cccc(C(=O)NCCN3CCCC3)c2)cnc1N)c1c(F)ccc(F)c1Cl` (stereo not shown) [Example I-348, 3-{6-Amino-5-[1-(2-chloro-3,6-difluoro-phenyl)-ethoxy]-pyridin-3-yl}-N-(2-pyrrolidin-1-yl-ethyl)-benzamide] the figure was 0.2 µM; with `Nc1ncc(-c2ccc(C(=O)NCCCN3CCCC3)cc2)cc1OCc1c(F)ccc(F)c1Cl` [Example I-222], 0.19 µM; with `Nc1ncc(-c2ccc(NS(=O)(=O)CCN3CCCCC3)cc2)cc1OCc1c(F)ccc(F)c1Cl` [Example I-248, 2-Pipendin-1-yl-ethanesulfonic acid {4-[6-amino-5-(2-chloro-3,6-difluoro-benzyloxy)-pyridin-3-yl]-phenyl}-amide], 0.114 µM. `CC(Oc1cc(-c2ccc(NS(C)(=O)=O)cc2)cnc1N)c1c(F)ccc(F)c1Cl` (stereo not shown) [Example I-364, N-(4-{6-Amino-5-[1-(2-chloro-3,6-difluoro-phenyl)-ethoxy]-pyridin-3-yl}-phenyl)-methanesulfonamide]: the IC50 came out at 0.1 µM. With `CC(Oc1cc(-c2cccc(C(=O)N3CCC[C@@H]3CN3CCCC3)c2)cnc1N)c1c(F)ccc(F)c1Cl` (stereo partly shown) [Example I-351], the IC50 stood at 0.23 µM.

The test is the same for the next values; noted with them: plain numbers in column Met IC50 (μM) of Table 2; read-out: Met IC50.
Consider `CC(Oc1cc(OCc2ccncc2)cnc1N)c1c(F)ccc(F)c1Cl` (stereo not shown) [Example I-540, 3-[1-(2-Chloro-3,8-difluoro-phenyl)-ethoxy]-5-(pyridin-4-ylmethoxy)-pyridin-2-ylamine], for which the IC50 was 0.8 µM. As to `CC(Oc1cc(C#CCNC(=O)NCCN2CCOCC2)cnc1N)c1c(Cl)ccc(F)c1Cl` (stereo not shown) [Example I-419], the IC50 worked out at 0.055 µM. With `CC(Oc1cc(-c2ccnc(C(=O)N3CCN(C)CC3)c2)cnc1N)c1c(F)ccc(F)c1Cl` (stereo not shown) [Example I-522], the IC50 was 0.0626 µM. As for `CC(Oc1cc(-c2ccc(C(=O)N3CCN(C)CC3)cc2)cnc1N)c1c(Cl)cccc1Cl` (stereo not shown) [Example I-411, (4-{6-Amino-5-[1-(2,6-dichloro-phenyl)-ethoxy]-pyridin-3-yl}-phenyl)-(4-methyl-piperazin-1-yl)-methanone], the IC50 came out at 0.053 µM. Consider `CC(Oc1cc(OCCC2CCCCC2)cnc1N)c1c(F)ccc(F)c1Cl` (stereo not shown) [Example I-536, 3-[1-(2-Chloro-3,6-diftuoro-phenyl)-ethoxy]-5-(2-cyclohexyl-ethoxy)-pyridin-2-ylamine], for which the IC50 was 7.5 µM. For the compound `CC(Oc1cc(-c2cccc(C(=O)N3CC[C@@H](N)C3)c2)cnc1N)c1c(Cl)cccc1Cl` (stereo partly drawn) [Example I-398, (3-{6-Amino-5-[1-(2,6-dichloro-phenyl)-ethoxy]-pyridin-3-yl}-phenyl)-((R)-3-amino-pyrrolidin-1-yl)-methanone], the IC50 came to 0.072 µM. For `CCN(CC)CC(=O)NCC#Cc1cnc(N)c(OC(C)c2c(Cl)ccc(F)c2Cl)c1` (stereo not shown) [Example I-430, N-(3-{6-Amino-5-[1-(2,6-dichloro-3-fluoro-phenyl)-ethoxy]-pyridin-3-yl}-prop-2-ynyl)-2-diethylamino-acetamide], the IC50 came out at 0.013 µM. Same read-out and setting: with `CC(Oc1cc(-c2ccc(NC(=O)N3CC[C@@H](N)C3)cc2)cnc1N)c1c(Cl)ccc(F)c1Cl` (stereo partly drawn) [Example I-375, (R)-3-Amino-pyrrolidine-1-carboxylix acid (4-{6-amino-5-[1-(2,6-dichloro-3-fluoro-phenyl)-ethoxy]-pyridin-3-yl}-phenyl)-amide] the figure was 0.053 µM.

The test is the same for the next values; noted with them: read-out: Met IC50.
In the case of `Nc1ncc(-c2ccc(C(=O)N3CCC[C@H]3CN3CCCC3)cc2)nc1OCc1cccc(F)c1C(F)(F)F` [II-129, {4-[5-Amino-6-(3-fluoro-2-trifluoromethyl-benzyloxy)-pyrazin-2-yl]-phenyl}-((S)-2-pyrrolidin-1-ylmethyl-pyrrolidin-1-yl)-methanone], the IC50 is 0.052 µM.

As for `CN1CCC(NC(=O)c2ccc(-c3cnc(N)c(OCc4cccc(F)c4C(F)(F)F)n3)cc2)CC1` [II-95, 4-[5-Amino-6-(3-fluoro-2-trifluoromethyl-benzyloxy)-pyrazin-2-yl]-N-(1-methyl-piperidin-4-yl)-benzamide], the IC50 was 0.081 µM. As to `Nc1ncc(-c2ccc(C(=O)N3CCC(N4CCCC4)CC3)cc2)nc1OCc1c(Cl)cccc1Cl` [II-8], the IC50 came out at 0.56 µM.

Turning to `CC(=O)N1CCN(CCNC(=O)c2ccc(-c3cnc(N)c(OC(C)c4c(Cl)cccc4Cl)n3)cc2)CC1` (stereo not shown) [II-175, N-[2-(4-Acetyl-piperazin-1-yl)-ethyl]-4-{5-amino-6-[1-(2,6-dichloro-phenyl)-ethoxy]-pyrazin-2-yl}-benzamide], the IC50 was 0.28 µM. With `Nc1ccc(-c2cnc(N)c(OCc3c(Cl)cccc3Cl)c2)cc1` [Example I-12, 5-(4-Amino-phenyl)-3-(2,6-dichloro-benzyloxy)-pyridin-2-ylamine], the IC50 stood at 0.606 µM. For `CC(Oc1nc(-c2ccc(NC(=O)NC3CCN(C)CC3)cc2)cnc1N)c1c(F)ccc(F)c1Cl` (stereo not shown) [II-188, 1-(4-{5-Amino-6-[1-(2-chloro-3,6-difluoro-phenyl)-ethoxy]-pyrazin-2-yl}-phenyl)-3-(1-methyl-piperidin-4-yl)-urea], the IC50 was found to be 0.054 µM. With `CC(Oc1nc(-c2cccc(C(=O)N3CC[C@H](N)C3)c2)cnc1N)c1c(Cl)ccc(F)c1Cl` (stereo partly drawn) [II-84, (3-{5-Amino-6-[1-(2,6-dichloro-3-fluoro-phenyl)-ethoxy]-pyrazin-2-yl}-phenyl)-[(3S)-3-amino-pyrrolidin-1-yl)-m-ethanone], the IC50 came out at 0.069 µM.

On to `CCN(CC)CCCNC(=O)c1ccc(-c2cnc(N)c(OCc3c(Cl)cccc3Cl)c2)cc1` [Example I-37, 4-[6-Amino-5-(2,6-dichloro-benzyloxy)-pyridin-3-yl]-N-(3-diethylamino-propyl)-benzamide], for which the IC50 stood at 0.82 µM. Consider `Nc1ncc(-c2ccccc2O)cc1OCc1c(Cl)cccc1Cl` [Example I-19, 2-[6-Amino-5-(2,6-dichloro-benzyloxy)-pyridin-3-yl]-phenol], for which the IC50 came to 2.16 µM. Take `Nc1ncc(-c2cccc(NS(=O)(=O)CCNC3CC3)c2)nc1OCc1c(F)ccc(F)c1Cl` [II-32, 2-Cyclopropylamino-ethanesulfonic acid {3-[5-amino-6-(2-chloro-3,6-difluoro-benzyloxy)-pyrazin-2-yl]-phenyl}-amide]: the IC50 turned out to be 2.13 µM. Take `CC(=O)N1CCN(CCS(=O)(=O)Nc2cccc(-c3cnc(N)c(OCc4c(F)ccc(F)c4Cl)n3)c2)CC1` [II-23, 2-(4-Acetyl-piperazin-1-yl)-ethanesulfonic acid {3-[5-amino-6-(2-chloro-3,6-difluoro-benzyloxy)-pyrazin-2-yl]-phenyl]-amide]: the IC50 worked out at 2.79 µM. Consider `Nc1ncc(-c2ccc(C(=O)O)cc2)nc1OCc1c(Cl)cccc1Cl` [II-6, 4-[5-amino-6-(2,6-dichloro-benzyloxy)-pyrazin-2-yl]-benzoic acid], for which the IC50 was found to be 1.75 µM. Same read-out and setting: with `Nc1ncc(-c2cccc(OCCN3CCOCC3)c2)cc1OCc1c(Cl)cccc1Cl` [Example I-3, 3-(2,6-Dichloro-benzyloxy)-5-[3-(2-morpholin-4-yl-ethoxy)-phenyl]-pyridin-2-ylamine] the figure was 0.59 µM. The same measure, in the same setting: then `Nc1ncc(-c2ccc(C(=O)N3CCC[C@@H]3CN3CCCC3)s2)nc1OCc1c(F)ccc(F)c1Cl` [II-197, {5-[5-Amino-6-(2-chloro-3,6-difluoro-benzyloxy)-pyrazin-2-yl]-thiophen-2-yl}-((R)-2-pyrrolidin-1-ylmethyl-pyrrolidin-1-yl)-methanone], with 0.8 µM. Take `Nc1ncc(-c2ccc(F)c(F)c2)cc1OCc1c(Cl)cccc1Cl` [Example I-21, 3-(2,6-Dichloro-benzyloxy)-5-(3,4-difluoro-phenyl)-pyridin-2-ylamine]: the IC50 came to 14.3 µM. For the compound `Nc1ncc(-c2ccc(NS(=O)(=O)CCN3CCOCC3)cc2)nc1OCc1c(F)ccc(F)c1Cl` [II-9, 2-Morpholin-4-yl-ethanesulfonic acid {4-[5-amino-6-(2-chloro-3,6-difluoro-benzyloxy)-pyrazin-2-yl]-phenyl}-amide], the IC50 turned out to be 1.26 µM. Turning to `CC(=O)N1CCN(CCNC(=O)c2cccc(-c3cnc(N)c(OC(C)c4c(Cl)cccc4Cl)n3)c2)CC1` (stereo not shown) [II-176, N-[2-(4-Acetyl-piperazin-1-yl)-ethyl]-3-{5-amino-6-[1-(2,6-dichloro-phenyl)-ethoxy]-pyrazin-2-yl}-benzamide], the IC50 came to 0.35 µM. For the compound `CC(Oc1nc(-c2cccc(C(=O)NCCN3CCCC3)c2)cnc1N)c1c(F)ccc(F)c1Cl` (stereo not shown) [II-99, 3-{5-Amino-6-[1-(2-chloro-3,6-difluoro-phenyl)-ethoxy]-pyrazin-2-yl}-N-(2-pyrrolidin-1-yl-ethyl)-benzamide], the IC50 stood at 0.18 µM.

As for `CC(Oc1nc(-c2ccc(C(=O)N3CCC[C@@H]3CN3CCCC3)cc2)cnc1N)c1c(F)ccc(F)c1Cl` (stereo partly drawn) [II-114, (4-{5-Amino-6-[1-(2-chloro-3,6-difluoro-phenyl)-ethoxy]-pyrazin-2-yl}-phenyl)-((R)-2-pyrrolidin-1-ylmethyl-pyrrolidin-1-yl)-methanone], the IC50 is 0.13 µM. As for `Nc1ncc(-c2ccc3[nH]cc(CN4CCCCC4)c3c2)nc1OCc1c(F)ccc(F)c1Cl` [II-67, 3-(2-Chloro-3,6-difluoro-benzyloxy)-5-(3-piperidin-1-ylmethyl-1H-indol-5-yl)-pyrazin-2-ylamine], the 50% inhibitory concentration (IC50) stood at 0.51 µM. Take `Nc1ncc(-c2ccc(C(=O)NCCCN3CCOCC3)cc2)cc1OCc1ccccc1Cl` [Example I-159, 4-[6-Amino-5-(2-chloro-benzyloxy)-pyridin-3-yl]-N-(3-morpholin-4-yl-propyl)-benzamide]: the IC50 came out at 4.5 µM. Turning to `Nc1ncc(-c2ccc(C(=O)NCCN3CCOCC3)s2)nc1OCc1c(F)ccc(F)c1Cl` [II-198, 5-[5-Amino-6-(2-chloro-3,6-difluoro-benzyloxy)-pyrazin-2-yl]-thiophene-2-carboxylic acid (2-morpholin-4-yl-ethyl)-amide], the IC50 was 0.7 µM.

Still in this test, the particulars now being: read-out: Met inhibition (printed in the Met IC50 column).
Broadly, the inhibition is how much of the control response was suppressed. For the compound `Nc1ncc(-c2ccccc2)cc1OCc1ccccc1Cl` [Example I-90, 3-(2-Chloro-benzyloxy)-5-phenyl-pyridin-2-ylamine], the inhibition at 20 µM stood at 48%.
